Columns and labels:
[1] = DRUGMATRIX: Tumor Necrosis Factor (TNF), Non-Selective radioligand binding (ligand: [125I] TNF-alpha); format: cell membranes, Membrane; details: u-937; Not Active = under 50% inhibition at 10 µM
B2 bradykinin receptor = target: T1, B2 bradykinin receptor (Homo sapiens, UniProt P30411); format: cell membranes, Membrane; details: chem-1; note: in other assays of this panel Not Active means under 50% inhibition at 10 µM
T1 sequence (P30411 whole entry): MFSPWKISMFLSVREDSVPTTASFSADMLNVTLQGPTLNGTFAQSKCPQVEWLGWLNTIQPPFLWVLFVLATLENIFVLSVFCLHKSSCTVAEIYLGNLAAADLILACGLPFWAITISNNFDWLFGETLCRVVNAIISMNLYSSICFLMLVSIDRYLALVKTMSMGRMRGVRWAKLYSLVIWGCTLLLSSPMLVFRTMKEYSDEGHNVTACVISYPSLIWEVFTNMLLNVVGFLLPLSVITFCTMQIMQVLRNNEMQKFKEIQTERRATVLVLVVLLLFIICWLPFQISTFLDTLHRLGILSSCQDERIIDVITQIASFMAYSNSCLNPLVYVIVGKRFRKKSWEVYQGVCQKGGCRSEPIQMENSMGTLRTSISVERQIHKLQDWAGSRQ

[2] = DRUGMATRIX: Atrial Natriuretic Factor (ANF) radioligand binding (ligand: [125I] ANF (rat)); format: cell membranes, Cavia porcellus, Dunkin-Hartley, Adrenal gland, Membrane; details: Not Active = under 50% inhibition at 10 µM
Cannabinoid receptor 1 = Cannabinoid receptor 1 (Homo sapiens, UniProt P21554); format: cell membranes, Chem-1, Membrane; details: chem-1; note: in other assays of this panel Not Active means under 50% inhibition at 10 µM
[3] = target: Tyrosine-protein kinase Lck (Homo sapiens, UniProt P06239); test: DRUGMATRIX: Protein Tyrosine Kinase, LCK enzyme inhibition (substrate: Poly(Glu:Tyr)); format: cell-based, Insect cells; details: Not Active = under 50% inhibition at 10 µM
[4] = target: T2, Angiotensin-converting enzyme (Oryctolagus cuniculus, UniProt P12822); test: biochemical; format: tissue-based, Lung;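 note: enzymatic inhibition of angiotensin-converting enzyme measured with FAPGG as the substrate; in other assays of this panel Not Active means under 50% inhibition at 10 µM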
T2 sequence (P12822 whole entry): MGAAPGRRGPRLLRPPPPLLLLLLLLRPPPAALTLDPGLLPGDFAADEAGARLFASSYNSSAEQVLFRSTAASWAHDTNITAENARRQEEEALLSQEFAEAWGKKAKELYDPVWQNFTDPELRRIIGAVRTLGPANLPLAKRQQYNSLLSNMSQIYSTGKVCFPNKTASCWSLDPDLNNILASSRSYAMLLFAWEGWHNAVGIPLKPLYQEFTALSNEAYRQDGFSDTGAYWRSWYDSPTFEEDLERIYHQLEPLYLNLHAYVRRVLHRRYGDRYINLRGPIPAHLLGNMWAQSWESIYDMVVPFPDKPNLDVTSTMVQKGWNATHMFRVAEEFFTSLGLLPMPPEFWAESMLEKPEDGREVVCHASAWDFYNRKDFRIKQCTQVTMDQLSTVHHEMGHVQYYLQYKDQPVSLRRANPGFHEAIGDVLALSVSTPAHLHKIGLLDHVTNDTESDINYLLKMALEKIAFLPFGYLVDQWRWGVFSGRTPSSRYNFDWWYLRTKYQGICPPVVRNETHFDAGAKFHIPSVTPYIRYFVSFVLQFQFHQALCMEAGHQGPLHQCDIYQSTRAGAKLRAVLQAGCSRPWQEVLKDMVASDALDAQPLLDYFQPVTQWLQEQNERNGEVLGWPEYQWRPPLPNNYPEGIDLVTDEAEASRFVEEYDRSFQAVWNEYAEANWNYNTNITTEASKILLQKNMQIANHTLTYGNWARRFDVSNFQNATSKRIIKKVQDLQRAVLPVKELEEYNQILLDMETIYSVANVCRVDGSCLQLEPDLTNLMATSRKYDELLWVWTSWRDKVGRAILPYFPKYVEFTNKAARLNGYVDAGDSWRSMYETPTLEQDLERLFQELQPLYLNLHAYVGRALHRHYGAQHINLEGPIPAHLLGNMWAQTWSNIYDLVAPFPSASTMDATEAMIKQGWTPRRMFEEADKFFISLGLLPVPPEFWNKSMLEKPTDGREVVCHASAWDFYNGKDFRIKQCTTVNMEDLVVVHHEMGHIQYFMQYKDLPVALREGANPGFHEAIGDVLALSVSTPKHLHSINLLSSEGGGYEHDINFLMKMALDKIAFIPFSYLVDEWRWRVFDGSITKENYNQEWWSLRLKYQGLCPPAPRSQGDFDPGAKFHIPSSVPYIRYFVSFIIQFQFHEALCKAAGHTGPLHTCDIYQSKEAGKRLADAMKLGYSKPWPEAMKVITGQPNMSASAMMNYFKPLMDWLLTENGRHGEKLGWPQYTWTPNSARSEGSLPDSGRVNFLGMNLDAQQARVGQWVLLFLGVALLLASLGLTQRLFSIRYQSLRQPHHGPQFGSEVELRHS

[5] = target: Delta-type opioid receptor (Homo sapiens, UniProt P41143); format: cell membranes, HEK293, Membrane; details: hek293; note: in other assays of this panel Not Active means under 50% inhibition at 10 µM
Adenosine receptor A3 = target: T3, Adenosine receptor A3 (Homo sapiens, UniProt P0DMS8); format: cell membranes, CHO-K1, Membrane; details: cho-k1
T3 sequence (P0DMS8 whole entry): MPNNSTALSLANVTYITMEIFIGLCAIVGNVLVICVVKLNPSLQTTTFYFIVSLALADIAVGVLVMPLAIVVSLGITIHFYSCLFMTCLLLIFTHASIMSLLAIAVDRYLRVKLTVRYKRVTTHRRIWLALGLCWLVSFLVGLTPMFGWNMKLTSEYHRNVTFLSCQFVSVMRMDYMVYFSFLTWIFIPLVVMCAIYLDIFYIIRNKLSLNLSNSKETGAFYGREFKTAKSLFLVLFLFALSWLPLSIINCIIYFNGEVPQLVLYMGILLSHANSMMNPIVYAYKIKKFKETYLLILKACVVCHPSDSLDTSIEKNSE

Sequence of Delta-type opioid receptor (P41143 whole entry): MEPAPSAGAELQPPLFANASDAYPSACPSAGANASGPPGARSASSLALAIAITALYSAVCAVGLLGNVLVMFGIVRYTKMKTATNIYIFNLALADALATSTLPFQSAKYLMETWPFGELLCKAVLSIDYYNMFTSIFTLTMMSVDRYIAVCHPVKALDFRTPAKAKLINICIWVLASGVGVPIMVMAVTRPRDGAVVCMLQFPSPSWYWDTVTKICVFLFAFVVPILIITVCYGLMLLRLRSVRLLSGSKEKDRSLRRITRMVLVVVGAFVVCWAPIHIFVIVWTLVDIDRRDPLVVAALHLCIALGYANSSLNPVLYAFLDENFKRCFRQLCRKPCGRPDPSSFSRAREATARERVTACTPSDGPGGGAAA
Sequence of Cannabinoid receptor 1 (P21554 whole entry): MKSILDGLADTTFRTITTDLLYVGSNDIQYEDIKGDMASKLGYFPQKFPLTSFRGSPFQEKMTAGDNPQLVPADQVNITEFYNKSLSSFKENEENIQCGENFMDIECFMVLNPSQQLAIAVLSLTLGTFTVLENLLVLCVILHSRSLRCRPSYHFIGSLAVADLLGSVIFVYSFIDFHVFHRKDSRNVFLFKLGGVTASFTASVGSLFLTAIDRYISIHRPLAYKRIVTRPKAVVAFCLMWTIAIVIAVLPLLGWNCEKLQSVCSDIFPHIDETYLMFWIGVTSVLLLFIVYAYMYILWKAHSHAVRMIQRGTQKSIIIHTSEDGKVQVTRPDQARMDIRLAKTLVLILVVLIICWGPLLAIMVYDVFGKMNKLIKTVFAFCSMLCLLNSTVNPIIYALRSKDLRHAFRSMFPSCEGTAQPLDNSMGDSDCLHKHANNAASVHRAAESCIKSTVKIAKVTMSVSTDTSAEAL
Sequence of Tyrosine-protein kinase Lck (P06239 whole entry): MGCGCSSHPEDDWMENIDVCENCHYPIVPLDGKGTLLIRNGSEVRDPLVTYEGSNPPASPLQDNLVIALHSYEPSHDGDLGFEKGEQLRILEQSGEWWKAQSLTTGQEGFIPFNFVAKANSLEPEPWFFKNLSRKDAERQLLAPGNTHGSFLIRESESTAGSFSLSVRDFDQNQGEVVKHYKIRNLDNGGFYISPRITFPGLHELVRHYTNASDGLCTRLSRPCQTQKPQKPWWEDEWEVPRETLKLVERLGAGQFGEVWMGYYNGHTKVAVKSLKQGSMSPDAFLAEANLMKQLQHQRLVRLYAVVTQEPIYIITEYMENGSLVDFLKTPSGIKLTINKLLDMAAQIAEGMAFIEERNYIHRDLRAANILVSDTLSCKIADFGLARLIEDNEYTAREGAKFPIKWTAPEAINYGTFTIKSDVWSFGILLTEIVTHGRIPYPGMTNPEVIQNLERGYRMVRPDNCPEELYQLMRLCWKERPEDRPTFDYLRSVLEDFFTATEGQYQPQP

SMILES	IC50 [1]	Ki [1]	IC50 (B2 bradykinin receptor)	IC50 [2]	Ki [2]	IC50 (Cannabinoid receptor 1)	IC50 ([3]; read-out: IC50) [µM]	IC50 [4]	IC50 [5]	IC50 (Adenosine receptor A3)	IC50 ([3]; insect cells)
O=C(OC[C@H]1O[C@@H](OC(=O)c2cc(O)c(O)c(OC(=O)c3cc(O)c(O)c(O)c3)c2)[C@H](OC(=O)c2cc(O)c(O)c(OC(=O)c3cc(O)c(O)c(O)c3)c2)[C@@H](OC(=O)c2cc(O)c(O)c(OC(=O)c3cc(O)c(O)c(O)c3)c2)[C@@H]1OC(=O)c1cc(O)c(O)c(OC(=O)c2cc(O)c(O)c(O)c2)c1)c1cc(O)c(O)c(OC(=O)c2cc(O)c(O)c(O)c2)c1 [TANNIC ACID]	Not Active	Not Active	Not Active	Not Active	Not Active	Not Active	0.079	Not Active	Not Active	Not Active	
CO[C@@]12[C@H](COC(N)=O)C3=C(C(=O)C(C)=C(N)C3=O)N1C[C@@H]1N[C@@H]12 [MITOMYCIN]	Not Active	Not Active	Not Active	Not Active	Not Active	Not Active		Not Active	Not Active	Not Active	Not Active
CN1C[C@H](CNC(=O)OCc2ccccc2)C[C@@H]2c3cccc4c3c(cn4C)C[C@H]21 [METERGOLINE]	Not Active	Not Active	Not Active	Not Active	Not Active	Not Active		Not Active	Not Active	Not Active	Not Active
Cc1[nH]c(=O)c(C#N)cc1-c1ccncc1 [MILRINONE]	Not Active	Not Active	Not Active	Not Active	Not Active	Not Active		Not Active	Not Active	Not Active	Not Active
COC(=O)Nc1nc2ccc(C(=O)c3ccccc3)cc2[nH]1 [MEBENDAZOLE]	Not Active	Not Active	Not Active	Not Active	Not Active	Not Active		Not Active	Not Active	Not Active	Not Active
CC(=O)O[C@]1(C(C)=O)CC[C@H]2[C@@H]3C[C@H](C)C4=CC(=O)CC[C@]4(C)[C@H]3CC[C@@]21C [MEDROXYPROGESTERONE ACETATE]	Not Active	Not Active	Not Active	Not Active	Not Active	Not Active		Not Active	Not Active	Not Active	Not Active
Cc1cn([C@H]2C=C[C@@H](CO)O2)c(=O)[nH]c1=O [STAVUDINE]	Not Active	Not Active	Not Active	Not Active	Not Active	Not Active		Not Active	Not Active	Not Active	Not Active
Cc1cnc(NC(=O)C2=C(O)c3ccccc3S(=O)(=O)N2C)s1 [MELOXICAM]	Not Active	Not Active	Not Active	Not Active	Not Active	Not Active		Not Active	Not Active	Not Active	Not Active
CC(O)C(=O)O (stereo not given) [LACTIC ACID]	Not Active	Not Active	Not Active	Not Active	Not Active	Not Active		Not Active	Not Active	Not Active	Not Active
C1CCN2C[C@@H]3C[C@@H](CN4CCCC[C@@H]34)[C@H]2C1 [SPARTEINE]	Not Active	Not Active	Not Active	Not Active	Not Active	Not Active		Not Active	Not Active	Not Active	Not Active
CC(N)C12CC3CC(CC(C3)C1)C2 (stereo not given) [RIMANTADINE]	Not Active	Not Active	Not Active	Not Active	Not Active	Not Active		Not Active	Not Active	Not Active	Not Active
